According to patent US4332820A, “Substituted benzonitriles having antiviral activity” (The Dow Chemical Company, priority 1980, dated 1982):
Converted amounts (≈) assume the structure as drawn.

How the values were obtained:
[1] = system: rhinovirus type 5 (RV-5); test: Tissue culture antiviral testing, RV-5 (cytopathic effect, HeLa cells); assay type: cell-based; settings: Enterovirus, HeLa cells, read-out: Lowest concentration of the compound necessary to cause a 50 percent reduction in cytopathic effect
[2] = system: rhinovirus type 2 (RV-2); test: Tissue culture antiviral testing, RV-2 (cytopathic effect, HeLa cells); assay type: cell-based; settings: Enterovirus, HeLa cells, NA = not active at the standard test conditions, read-out: Lowest concentration of the compound necessary to cause a 50 percent reduction in cytopathic effect
[3] = system: rhinovirus type 64 (RV-64); test: Tissue culture antiviral testing, RV-64 (cytopathic effect, HeLa cells); assay type: cell-based; settings: Enterovirus, HeLa cells, NA = not active at the standard test conditions, read-out: Lowest concentration of the compound necessary to cause a 50 percent reduction in cytopathic effect
[4] = system: rhinovirus type 8 (RV-8); test: Tissue culture antiviral testing, RV-8 (cytopathic effect, HeLa cells); assay type: cell-based; settings: Enterovirus, HeLa cells, read-out: Lowest concentration of the compound necessary to cause a 50 percent reduction in cytopathic effect
[5] = system: Coxsackie A21 virus (Cox A21); test: Tissue culture antiviral testing, Cox A21 (cytopathic effect, HeLa cells); assay type: cell-based; settings: HeLa cells, NA = not active at the standard test conditions, read-out: Lowest concentration of the compound necessary to cause a 50 percent reduction in cytopathic effect
[6] = Cytotoxicity in tissue culture (HeLa monolayers); assay type: cell-based; settings: human; HeLa cells; observed at 48 and 72 hours post-treatment; read-out: Cytotoxicity (concentration of the compound found to be toxic to the cell)
[7] = system: rhinovirus type 1A (RV-1A); test: Tissue culture antiviral testing, RV-1A (cytopathic effect, HeLa cells); assay type: cell-based; settings: Enterovirus, HeLa cells, NA = not active at the standard test conditions, read-out: Lowest concentration of the compound necessary to cause a 50 percent reduction in cytopathic effect
[8] = system: Cox A21; test: Single Oral Dose test in mice challenged with Cox A21; assay type: in vivo, Swiss male mice; settings: po, 600 mg/kg, 3 h
[9] = system: Coxsackie A21 virus; test: Continuous Oral Feeding test in mice challenged with Coxsackie A21; assay type: in vivo; settings: po, 0.06 % in diet, 240 h, 0.06 % strength

EC50 [1] [µg/mL] | EC50 [2] [µg/mL] | EC50 [3] [µg/mL] | EC50 [4] [µg/mL] | EC50 [5] [µg/mL] | EC50 [7] [µg/mL] | Compound | MCC [6] [µg/mL] | X^2 (Single Oral Dose, chi-square of deaths vs virus control) [8] | X^2 (Continuous Oral Feeding, chi-square of deaths) [9]
6.25 (≈ 23.1 µM) | ≤ 3.12 | 12.5 (≈ 46.3 µM) | 3.12 (≈ 11.6 µM) | < 3.12 | 6.25 (≈ 23.1 µM) | COc1cccc(Oc2ccc([N+](=O)[O-])cc2C#N)c1 [Example 13, 2-(3-Methoxyphenoxy)-5-nitrobenzonitrile] | > 50 | – | –
– | 2.5 (≈ 6.65 µM) | – | – | 10 (≈ 26.6 µM) | – | N#Cc1cc([N+](=O)[O-])ccc1Oc1cc(C(F)(F)F)cc(C(F)(F)F)c1 [Example 28, 2-(3,5-bis(Trifluoromethyl)phenoxy)-5-nitrobenzonitrile] | ≥ 20 | – | –
– | 50 (≈ 150 µM) | – | – | < 6.25 | – | N#Cc1cc([N+](=O)[O-])ccc1Oc1ccc(Oc2ccccc2)cc1 [Example 5, 2-(4-Phenoxyphenoxy)-5-nitrobenzonitrile] | > 100 | 0.719 | 0.26
– | ~100 (≈ 290 µM) | – | – | 12.5 (≈ 36.3 µM) | – | N#Cc1cc([N+](=O)[O-])ccc1Oc1ccc(C(=O)c2ccccc2)cc1 [Example 11, 2-(4-Benzoylphenoxy)-5-nitrobenzonitrile] | > 100 | 0.64 | –
6.25 (≈ 21.6 µM) | 3.12 (≈ 10.8 µM) | – | 3.12 (≈ 10.8 µM) | 12.5 (≈ 43.3 µM) | 12.5 (≈ 43.3 µM) | Cc1cc(Cl)ccc1Oc1ccc([N+](=O)[O-])cc1C#N [Example 16, 2-(4-Chloro-2-methylphenoxy)-5-nitrobenzonitrile] | > 50 | – | –
– | 1.25 (≈ 3.64 µM) | – | – | 1.25 (≈ 3.64 µM) | 2.5 (≈ 7.28 µM) | N#Cc1cc([N+](=O)[O-])ccc1Oc1cc(Cl)c(Cl)c(Cl)c1 [Example 17, 2-(3,4,5-Trichlorophenoxy)-5-nitrobenzonitrile] | 10 | – | –
2.5 (≈ 8.11 µM) | 0.312 (≈ 1.01 µM) | 0.625 (≈ 2.03 µM) | 0.312 (≈ 1.01 µM) | 0.625 (≈ 2.03 µM) | 3.12 (≈ 10.1 µM) | N#Cc1cc([N+](=O)[O-])ccc1Oc1ccc(C(F)(F)F)cc1 [Example 14, 2-((4-Trifluoromethyl)phenoxy)-5-nitrobenzonitrile] | ≥ 50 | – | –
3.12 (≈ 10.1 µM) | ≤ 3.12 | 3.12 (≈ 10.1 µM) | ≤ 3.12 | 12.5 (≈ 40.4 µM) | 3.12 (≈ 10.1 µM) | N#Cc1cc([N+](=O)[O-])ccc1Oc1c(Cl)cccc1Cl [Example 24, 2-(2,6-Dichlorophenoxy)-5-nitrobenzonitrile] | > 50 | – | –
– | 12.5 (≈ 39.3 µM) | – | – | < 6.25 | – | CS(=O)(=O)c1ccc(Oc2ccc([N+](=O)[O-])cc2C#N)cc1 [Example 8, 2-(4-(Methylsulfonyl)phenoxy)-5-nitrobenzonitrile] | > 100 | 0.095 | 10.45
– | ≤ 6.25 | – | – | < 6.25 | – | CSc1ccc(Oc2ccc([N+](=O)[O-])cc2C#N)cc1 [Example 6, 2-(4-(Methylthio)phenoxy)-5-nitrobenzonitrile] | 100 | 0.609 | 6.91
0.625 (≈ 2.03 µM) | 0.625 (≈ 2.03 µM) | 0.625 (≈ 2.03 µM) | 1.25 (≈ 4.06 µM) | 1.25 (≈ 4.06 µM) | 2.5 (≈ 8.11 µM) | N#Cc1cc([N+](=O)[O-])ccc1Oc1cccc(C(F)(F)F)c1 [Example 27, 2-((3-Trifluoromethyl)phenoxy)-5-nitrobenzonitrile] | 12.5 | – | –
1.25 (≈ 4 µM) | < 3.12 | 0.312 (≈ 1 µM) | 1.25 (≈ 4 µM) | 3.12 (≈ 10 µM) | 3.12 (≈ 10 µM) | N#Cc1cc([N+](=O)[O-])ccc1Oc1c(F)c(F)cc(F)c1F [Example 18, 2-(2,3,5,6-Tetrafluorophenoxy)-5-nitrobenzonitrile] | 12.5 | – | –
– | 2.5 (≈ 7.69 µM) | – | – | ~2.5 (≈ 7.69 µM) | – | N#Cc1cc([N+](=O)[O-])ccc1Sc1ccc(Cl)c(Cl)c1 [Example 20, 2-((3,4-Dichlorophenyl)thio)-5-nitrobenzonitrile] | 10 | – | –
3.12 (≈ 9.1 µM) | 1.25 (≈ 3.64 µM) | 3.12 (≈ 9.1 µM) | < 3.12 | 5 (≈ 14.6 µM) | 2.5 (≈ 7.28 µM) | N#Cc1cc([N+](=O)[O-])ccc1Oc1c(Cl)ccc(Cl)c1Cl [Example 31, 2-(2,3,6-Trichlorophenoxy)-5-nitrobenzonitrile] | > 20 | – | –
– | 1.25 (≈ 3.64 µM) | – | – | ~5 (≈ 14.6 µM) | ~10 (≈ 29.1 µM) | N#Cc1cc([N+](=O)[O-])ccc1Oc1ccc(Cl)c(Cl)c1Cl [Example 29, 2-(2,3,4-Trichlorophenoxy)-5-nitrobenzonitrile] | > 20 | – | –
